# Measured values taken from PMC10610134, “Verubulin (Azixa) Analogues with Increased Saturation: Synthesis, SAR and Encapsulation in Biocompatible Nanocontainers Based on Ca^2+ or Mg^2+ Cross-Linked Alginate” (Pharmaceuticals, 2023).
# Columns and labels:
# [1] = tested on: HCT116 cell line; assay: MTT cytotoxicity towards HCT116; type: cell-based, human; settings: HCT-116; HCT116, human colon carcinoma; read-out: IC50
# [2] = tested on: microtubules in carcinoma A549 cells; assay: Immunofluorescent microscopy of microtubules; type: cell-based, human; settings: 24 h, A549
# Method: Since verubulin is known to stimulate microtubule disassociation, we performed an immunofluorescent microscopy study to determine the response of microtubule dynamics in carcinoma A549 cells to the treatment with representative compounds 2b,c,e. […] Aberrant cell morphology—contraction and rounding (Figure 2A,B) or contraction and elongation (Figure 2C)—was also observed.
# A549 cells were seeded on coverslips (treated with poly-l-lysine at a concentration of 33 mg/L for an hour). Compounds were added up to the corresponding concentration after 24 h attachment and growth of the cells. Then, cells were incubated 24 h.
# The cells were fixed with methanol (precooled in liquid nitrogen for 20 min), no additional permeabilization was performed. To prevent non-specific binding, cells were incubated with 4% BSA in PBS for one hour. Then, a solution of mouse monoclonal antibodies against alpha-tubulin cross-linked with Alexa 488 fluoroform (Thermo Fisher Scientific, Waltham, MA, USA, 32-2588) at a concentration of 5 μg/mL in 1% BSA solution in PBS was added to the cells, and the slides were incubated at +5 °C in a water chamber for 24 h. After the end of the incubation time, the cells were washed several times with PBS buffer solution and fixed on a glass slide with Moviol. Next day, cells were imaged with a ZEISS LSM 900 (ZEISS Microscopy, GmbH, Germany) and images processed with ImageJ.
# [3] = tested on: HCT116 cells; assay: Apoptosis induction, Annexin V / 7-AAD flow cytometry; type: cell-based, human
# Method: Apoptosis is an important and active regulatory pathway of cell growth and proliferation. Annexin V is a calcium-dependent phospholipid-binding protein with a high affinity for phosphatidylserine (PS), a membrane component normally localized to the internal face of the cell membrane. Early in the apoptotic pathway, molecules of PS are translocated to the outer surface of the cell membrane where Annexin V can readily bind them.
# After incubation, the cells were harvested by trypsinization, precipitated by centrifugation (3000 rpm), washed with cold PBS and recentrifuged. Aliquots of cells were processed as recommended in the Muse Annexin V& Dead Cell Kit (Luminex Corporation, Austin, TX, USA). The results were recorded on a Muse Cell Analyzer flow cytometer (Merck, Rahway, NJ, USA).
# [4] = tested on: immortalized lung fibroblast cell line VA13 (WI38 subline 2RA); assay: MTT cytotoxicity assay, VA13; type: cell-based; settings: Homo sapiens, VA-13; 64 h treatment, MTT; read-out: IC50, nM VA13
# From the text: (§1) The obtained series of verubulin analogues 2a–r (which also included three by-products isolated in the reactions according to Scheme 2) were initially evaluated for cytotoxicity against commonly used human breast cancer cell line MCF7′ (fast-growth subclone), human lung epithelial carcinoma cell line A549 and etiologically non-cancer immortalized lung fibroblast cell line VA13 (WI38 subline 2RA). Cytotoxicity against immortalized human embryonic kidney cell line HEK293T, characterized by a high growth rate, was also studied regarding cytotoxicity against non-cancerous fast-growth cells. A standard MTT assay was performed; verubulin (1) served as a positive reference. The data obtained are presented in Table 1 (for dose–response curves, see Supplementary Materials).
# (§2) Human breast cancer cell line MCF7′ and human lung adenocarcinoma cell line A549 were kindly provided by Dr. S. Dmitriev (Lomonosov Moscow State University), immortalized human fibroblast cell line VA13 (WI38 subline 2RA) was kindly provided by Dr. M. Rubtsova (Lomonosov Moscow State University), human embryonic kidney HEK293T cell line was kindly provided by Dr. E. Knyazhanskaya (Lomonosov Moscow State University). MCF7′, VA13, A549 and HEK293T cell lines were maintained in DMEM/F-12 (Thermo Fisher Scientific, Waltham, MA, USA) culture medium containing 10% fetal bovine serum (Thermo Fisher Scientific, Waltham, MA, USA) and 50 μg/mL penicillin and 0.05 mg/mL streptomycin at 37 °C (Thermo Fisher Scientific, Waltham, MA, USA) in 5% CO2. Cells were maintained at 37 °C in a humidified MCO-18AC incubator (Sanyo, Tokyo, Japan) supplied with 5% CO2. Cell cultures were tested for the absence of mycoplasma and validated by STR.
# (§3) The cytotoxicity of the substances was tested using the 3-(4,5-dimethylthiazol-2-yl)2,5-diphenyl tetrazolium bromide (MTT) assay with some modifications. A total of 2500 cells per well for the MCF7′, HEK293T, A549 cell lines or 4000 cells per well for the VA-13 cell line were plated out in 135 μL of DMEM-F12 media (Gibco, Thermo Fisher Scientific, Waltham, MA, USA) in a 96-well plate and incubated in the 5% CO2 incubator for the first 20 h without treatment. Then, 15.8 μL of media–DMSO solutions of tested substances (final DMSO concentrations in the media were 0.5% or less) was added to the cells (triplicate each) and cells were treated for 64 h with 0.023 mg/L–50 mg/L (eight dilutions) of compounds 2f,n,o,r; 1.14 μg/L–2.5 mg/L (eight dilutions) of compounds 2a,b,d,g,h,k,l,p,q; 57.2 ng/L–125 μg/L (eight dilutions) of compounds 2e,i,j; 22.9 ng/L–50 μg/L (eight dilutions) of compounds 1,2c,m. Doxorubicin was used as a control substance. Then, the MTT reagent (Paneco LLC, Moscow, Russia) was added to cells up to a final concentration of 0.5 g/L (10 × stock solution in PBS was used) and incubated for 2 h at 37 °C in the incubator, under an atmosphere of 5% CO2. Then, the MTT solution was discarded, and 140 μL of DMSO (PharmaMed LLC, Moscow, Russia) was added. The plates were swayed on a shaker (120 rpm) to dissolve the formazan. The absorbance was measured using a microplate reader (VICTOR X5 Light Plate Reader, PerkinElmer, Waltham, MA, USA) at a wavelength of 555 nm (in order to measure formazan concentration). The results were used to construct dose–response graphs and to estimate IC50 values (IC50 is the concentration resulting in half of the maximal cytotoxic effect) with GraphPad Prism V, GraphPadSoftware, Inc., San Diego, CA, USA.
# [5] = tested on: human lung epithelial carcinoma cell line A549; assay: MTT cytotoxicity assay, A549; type: cell-based; settings: A549, 64 h treatment, MTT, read-out: IC50, nM A549
# From the text: as §1, §2, §3
compound,measurement,setting,value
"COc1ccc(N(C)c2nc(C)nc3c2CCCC3)cc1 [Compound 2c, N-(4-methoxyphenyl)-N,2-dimethyl-5,6,7,8-tetrahydroquinazolin-4-amine]",IC50,[1],0.2 ± 0.01 nM
same,effect on microtubules (MTs),[2]; 10 μM,full depolymerization of MTs
same,effect on microtubules,[2]; 5–10 μM,pronounced or complete disruption of microtubules
same,"apoptotic cells, early plus late","[3]; 2 × IC50, 48 h, HCT116",30%
same,Live (viable cells),"[3]; human, 48 h",69.45%
same,IC50,[4],1.6 ± 0.4 nM
same,IC50,[5],2.7 ± 0.4 nM
